Measured values: patent publication US20190112316A1, “THIAZOLO[3,2-A] PYRIMIDINONE AND OTHER HETEROBICYCLIC PYRIMIDINONE COMPOUNDS FOR USE IN MEDICAL THERAPY” (priority 2015, published 2019)
Values after ≈ are worked out from the molar mass of the structure shown.

Tests used:
[1] = Compound solubility in water; type: physicochemical
[2] = biological target: T1, glucocerebrosidase (Gcase) (Homo sapiens, UniProt P04062); test: Glucocerebrosidase (Gcase) activation assay, 4-methylumbelliferyl-beta-D-glucopyranoside substrate, with saposin C; type: biochemical; details: for activation at 0.1 µM: read-out: Percent Gcase Activation 0.1 μM Test Compound; for activation at 1 µM: read-out: Percent Gcase Activation 1 μM Test Compound
T1 construct: micellar solution containing 10 nM GCase and 100 nM saposin C (Enzo ALX-201-262-C050)
T1 sequence (P04062 40-536): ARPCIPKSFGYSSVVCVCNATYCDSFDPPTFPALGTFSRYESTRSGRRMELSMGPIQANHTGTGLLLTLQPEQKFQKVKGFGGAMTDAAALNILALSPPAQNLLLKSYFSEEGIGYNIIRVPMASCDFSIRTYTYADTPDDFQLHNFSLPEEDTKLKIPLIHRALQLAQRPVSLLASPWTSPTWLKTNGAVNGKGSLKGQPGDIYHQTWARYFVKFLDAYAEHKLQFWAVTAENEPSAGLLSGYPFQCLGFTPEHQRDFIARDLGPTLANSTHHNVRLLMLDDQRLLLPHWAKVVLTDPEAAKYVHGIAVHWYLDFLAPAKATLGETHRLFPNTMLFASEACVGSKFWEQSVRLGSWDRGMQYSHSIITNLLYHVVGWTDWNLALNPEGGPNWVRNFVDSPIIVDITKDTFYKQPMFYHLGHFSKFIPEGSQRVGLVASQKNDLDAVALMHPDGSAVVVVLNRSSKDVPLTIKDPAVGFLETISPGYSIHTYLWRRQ
Method: A 484 μL aliquot of a 1.0 mg/mL solution of phosphatidylserine (PS) (Sigma P7769) in chloroform was evaporated under a stream of nitrogen for 1 hour. The lipid film was dissolved over 4 minutes of vigorous vortexing in 40 mL of 176 mM K2HPO4/50 mM citric acid (pH 4.7) containing 7.5 μL of triton X-100, resulting in a mixed micellar preparation with a composition of 0.32 mM triton and 0.37 mol % PS. 4-Methylumbelliferyl-beta-D-glucopyranoside (ACROS-337025000) was dissolved in the micellar solution to a final concentration of 2 mM for use as the reaction substrate.
Test compounds were diluted to the desired concentrations with dimethylsulfoxide (DMSO) from 10 mM stocks, and 0.41 μL of the DMSO compound mixture was added to 100 μL of micellar solution containing 10 nM GCase and 100 nM saposin C (Enzo ALX-201-262-C050). Pre-incubation was allowed to occur for 30 minutes at room temperature, after which the reaction was initiated by combining 25 μL of substrate solution with 25 μL of compound/GCase/saposin mixture. The reaction proceeded for 15 minutes at room temperature and was stopped by adding 150 μL of 1M glycine, pH 12.5. The endpoint of the reaction was monitored by measuring fluorescence intensity (excitation: 365 nm; emission: 440 nm) on a SpectraMax i3 instrument (Molecular Devices). Test compounds were screened at 1.0 and 0.1 μM final concentration, and subsequent 8-point dose response curves were obtained using 3-fold dilutions from a maximum final concentration of 5 μM.

| solubility [1] [µg/mL] | activation at 0.1 µM [2] [%] | activation at 1 µM [2] [%] | Structure (SMILES) |
| --- | --- | --- | --- |
| 8.4 (≈ 23 µM) | < 5 | 5 to 20 | CCCCCO[C@H]1CC[C@H](NC(=O)c2cnc3n(c2=O)CCS3)CC1 |
| 1.1 (≈ 3.51 µM) | < 5 | > 20 | CCc1ccc(NC(=O)c2cnc3scc(C)n3c2=O)cc1 |
| 0.5 (≈ 1.53 µM) | 5 to 20 | > 20 | Cc1csc2ncc(C(=O)Nc3ccc(C(C)C)cc3)c(=O)n12 |
| 17 (≈ 54.2 µM) | < 5 | 5 to 20 | CCc1ccc(CNC(=O)c2cnc3sccn3c2=O)cc1 |
| 2.5 (≈ 7.64 µM) | < 5 | 5 to 20 | CCc1ccc(CCNC(=O)c2cnc3sccn3c2=O)cc1 |
| 4.9 (≈ 16 µM) | 5 to 20 | > 20 | CCC1CCC(NC(=O)c2cnc3sccn3c2=O)CC1 (stereo not drawn) |
| 22.6 (≈ 65.8 µM) | < 5 | < 5 | O=C(NCC1COc2ccccc2O1)c1cnc2sccn2c1=O (stereo not drawn) |
| 2.7 (≈ 8.59 µM) | < 5 | 5 to 20 | CC(C)c1ccc(NC(=O)c2cnc3sccn3c2=O)nc1 |
| 13.8 (≈ 43.9 µM) | < 5 | < 5 | CC(C)c1ccc(NC(=O)c2cnc3sccn3c2=O)cn1 |
| 3.4 (≈ 11.5 µM) | 5 to 20 | > 20 | C#Cc1ccc(NC(=O)c2cnc3sccn3c2=O)cc1 |
| 1.2 (≈ 3.85 µM) | 5 to 20 | > 20 | O=C(NC1Cc2ccccc2C1)c1cnc2sccn2c1=O |
| 1 (≈ 3.41 µM) | < 5 | 5 to 20 | CCc1ccc(NC(=O)c2cnc3ccccn3c2=O)cc1 |
| 0.3 (≈ 0.933 µM) | < 5 | 5 to 20 | CCC(C)c1ccc(NC(=O)c2cnc3ccccn3c2=O)cc1 (stereo not drawn) |
| 1 (≈ 2.98 µM) | 5 to 20 | > 20 | CCC(C)c1ccc(NC(=O)c2cnc3cccc(C)n3c2=O)cc1 (stereo not drawn) |
| 0.05 (≈ 0.149 µM) | < 5 | 5 to 20 | CCC(C)c1ccc(NC(=O)c2cnc3ccc(C)cn3c2=O)cc1 (stereo not drawn) |
| 0.5 (≈ 1.49 µM) | < 5 | 5 to 20 | CCC(C)c1ccc(NC(=O)c2cnc3c(C)cccn3c2=O)cc1 (stereo not drawn) |

| solubility [1] [µg/mL] | activation at 0.1 µM [2] [%] | activation at 1 µM [2] [%] | Structure (SMILES) |
| --- | --- | --- | --- |
| 18.7 (≈ 62.5 µM) | < 5 | > 20 | Cc1cccc2ncc(C(=O)NC3CCC(C)CC3)c(=O)n12 (stereo not drawn) |
| 9.3 (≈ 31.1 µM) | < 5 | > 20 | Cc1cccc2ncc(C(=O)NC3CCCCCC3)c(=O)n12 |
| 1.2 (≈ 3.47 µM) | < 5 | 5 to 20 | Cc1cccc2ncc(C(=O)Nc3ccc(-n4ccnc4)cc3)c(=O)n12 |
| 13.9 (≈ 41.7 µM) | 5 to 20 | > 20 | Cc1cccc2ncc(C(=O)NC3CCCc4ccccc43)c(=O)n12 (stereo not drawn) |
| 6.8 (≈ 21.3 µM) | < 5 | > 20 | Cc1cccc2ncc(C(=O)NC3CCc4ccccc43)c(=O)n12 (stereo not drawn) |
| 0.7 (≈ 2.08 µM) | < 5 | 5 to 20 | Cc1cccc2ncc(C(=O)Nc3ccc4c(c3)OCCO4)c(=O)n12 |
| 31 (≈ 108 µM) | < 5 | 5 to 20 | Cc1cccc2ncc(C(=O)NC3CCOCC3)c(=O)n12 |
| 33.3 (≈ 85.1 µM) | < 5 | 5 to 20 | CCN1CCN(c2ccc(NC(=O)c3cnc4cccc(C)n4c3=O)cc2)CC1 |
| 1.4 (≈ 3.86 µM) | < 5 | < 5 | Cc1cccc2ncc(C(=O)Nc3ccc(N4CCCCC4)cc3)c(=O)n12 |
| 3.5 (≈ 9.68 µM) | 5 to 20 | > 20 | Cc1cccc2ncc(C(=O)NC3CCC(c4ccccc4)CC3)c(=O)n12 (stereo not drawn) |
| 35.4 (≈ 106 µM) | < 5 | < 5 | Cc1cccc2ncc(C(=O)Nc3ccc4c(c3)CN(C)C4)c(=O)n12 |
| 4.3 (≈ 12.9 µM) | < 5 | 5 to 20 | Cc1cccc2ncc(C(=O)NC3CCc4ccccc4C3)c(=O)n12 (stereo not drawn) |
| 1.5 (≈ 4.95 µM) | < 5 | 5 to 20 | C#Cc1ccc(NC(=O)c2cnc3cccc(C)n3c2=O)cc1 |
| 0.05 (≈ 0.149 µM) | 5 to 20 | > 20 | CCCCc1ccc(NC(=O)c2cnc3cccc(C)n3c2=O)cc1 |
| 0.2 (≈ 0.553 µM) | < 5 | > 20 | Cc1cccc2ncc(C(=O)Nc3ccc(C4CCCCC4)cc3)c(=O)n12 |
| 0.4 (≈ 1.17 µM) | 5 to 20 | > 20 | CCCCC1CCC(NC(=O)c2cnc3cccc(C)n3c2=O)CC1 (stereo not drawn) |
